Tested on: Plasmodium berghei
Experiment: Luciferase/luciferin-expressing antifolate-resistant parasites were used to infect a culture of HepG2 cells that were pre-incubated with compounds. Infected hepatocytes emit light due to the luciferase reaction. Assay results are presented as the percent inhibition of light emission compared to control. […]
Format: functional
Details: sporozoite; for IC90: read-out: LUCIFERASE INFECTION ASSAY - IC90

SMILES	IC90	further results
COc1ccc(OC)c(NC(=O)c2cc(-c3cc(Cl)ccc3O)[nH]n2)c1	> 8.83 µM	IC50 (HEPG2TOX_HILL_SLOPE 2.05, HEPG2TOX_R_SQUARED 0.718, PBLUC_HILL_SLOPE 2.04, PBLUC_R_SQUARED 0.622, read-out: LUCIFERASE INFECTION ASSAY - IC50): 4.02 µM
CCc1ccc(CN(C)C(=O)c2cccc(S(=O)(=O)Nc3ccccc3OC)c2)cc1	> 10 µM	IC50 (HEPG2TOX_HILL_SLOPE 2.04, HEPG2TOX_R_SQUARED 0.142, read-out: LUCIFERASE INFECTION ASSAY - IC50): > 10 µM
Oc1ccc2ccccc2c1/C=N/Nc1nnc(-c2ncc[nH]2)c2ccccc12	4.64 µM	IC50 (HEPG2TOX_HILL_SLOPE 2.06, HEPG2TOX_R_SQUARED 0.877, PBLUC_HILL_SLOPE 10.4, PBLUC_R_SQUARED 0.915, read-out: LUCIFERASE INFECTION ASSAY - IC50): 3.76 µM
CC(C)N1/C(=C\c2ccccc2O)C(=O)c2ccccc2S1(=O)=O	> 9.61 µM	IC50 (HEPG2TOX_HILL_SLOPE 2.04, HEPG2TOX_R_SQUARED 0.975, PBLUC_HILL_SLOPE 1.99, PBLUC_R_SQUARED 0.616, read-out: LUCIFERASE INFECTION ASSAY - IC50): 3.26 µM
CCN1C(=O)N(Cc2cccc(OC)c2)C(=O)C12CCN(Cc1cnc(-c3ccccc3)s1)CC2	> 6.73 µM	IC50 (HEPG2TOX_HILL_SLOPE 2.07, HEPG2TOX_R_SQUARED 0.932, PBLUC_HILL_SLOPE 9.26, PBLUC_R_SQUARED 0.304, read-out: LUCIFERASE INFECTION ASSAY - IC50): 5.74 µM
FC(F)(F)Oc1ccc(-c2ccc(OCCCc3ccccn3)nc2)cc1	> 8.82 µM	IC50 (HEPG2TOX_HILL_SLOPE 2.06, HEPG2TOX_R_SQUARED 0.963, PBLUC_HILL_SLOPE 4.51, PBLUC_R_SQUARED 0.157, read-out: LUCIFERASE INFECTION ASSAY - IC50): 6.75 µM
CCOc1ccccc1/C=C/C(=O)OCC(=O)Nc1ccccc1-c1ccccc1	3.67 µM	IC50 (HEPG2TOX_HILL_SLOPE 2.07, HEPG2TOX_R_SQUARED 0.949, PBLUC_HILL_SLOPE 25.6, PBLUC_R_SQUARED 0.535, read-out: LUCIFERASE INFECTION ASSAY - IC50): 3.37 µM
CCN(CCNc1ncnc2sc(-c3ccccc3)cc12)c1cccc(C)c1	3.9 µM	IC50 (HEPG2TOX_HILL_SLOPE 2.04, HEPG2TOX_R_SQUARED 0.0176, PBLUC_HILL_SLOPE 12.8, PBLUC_R_SQUARED 0.373, read-out: LUCIFERASE INFECTION ASSAY - IC50): 3.29 µM
O=C(c1cncn1-c1ccccc1)N1CC=C(c2ccccc2)CC1	> 10 µM	IC50 (HEPG2TOX_HILL_SLOPE 2.04, HEPG2TOX_R_SQUARED 0.78, PBLUC_HILL_SLOPE 1.11, PBLUC_R_SQUARED 0.463, read-out: LUCIFERASE INFECTION ASSAY - IC50): 4.38 µM
CNS(=O)(=O)c1ccc(C(=O)Nc2ccc(Nc3ccccc3)cc2)o1	1.18 µM	IC50 (HEPG2TOX_HILL_SLOPE 2.07, HEPG2TOX_R_SQUARED 0.347, PBLUC_HILL_SLOPE 43.9, PBLUC_R_SQUARED 0.459, read-out: LUCIFERASE INFECTION ASSAY - IC50): 1.12 µM
CC(Sc1nnc(-c2ccccc2)c(-c2ccccc2)n1)C(=O)N1CCCC1 (configuration not stated)	1.49 µM	IC50 (HEPG2TOX_HILL_SLOPE 2.07, HEPG2TOX_R_SQUARED 0.202, PBLUC_HILL_SLOPE 16.4, PBLUC_R_SQUARED 0.575, read-out: LUCIFERASE INFECTION ASSAY - IC50): 1.3 µM
Cc1nc2ccccc2nc1SCC(=O)NC1CCCC(C)C1C (configuration not stated)	8.45 µM	IC50 (HEPG2TOX_HILL_SLOPE 2.05, HEPG2TOX_R_SQUARED 0.851, PBLUC_HILL_SLOPE 3.81, PBLUC_R_SQUARED 0.351, read-out: LUCIFERASE INFECTION ASSAY - IC50): 4.75 µM
O=C1CC(c2ccccc2Br)c2c(ccc3ccccc23)N1 (configuration not stated)	> 9.37 µM	IC50 (HEPG2TOX_HILL_SLOPE 2.07, HEPG2TOX_R_SQUARED 0.801, PBLUC_HILL_SLOPE 1.69, PBLUC_R_SQUARED 0.513, read-out: LUCIFERASE INFECTION ASSAY - IC50): 4.97 µM
O=[N+]([O-])c1ccc(NN=C(Cc2ccccc2)Cc2ccccc2)c(S(=O)(=O)Nc2ccccc2Cl)c1	> 10 µM	IC50 (HEPG2TOX_HILL_SLOPE 2.02, HEPG2TOX_R_SQUARED 0.983, PBLUC_HILL_SLOPE 2.86, PBLUC_R_SQUARED 0.742, read-out: LUCIFERASE INFECTION ASSAY - IC50): 6.11 µM
COc1cc(/C=C/C(=O)c2ccc(C3CCCCC3)cc2)cc(Br)c1OCC(=O)N(C)C	3.59 µM	IC50 (HEPG2TOX_HILL_SLOPE 2.02, HEPG2TOX_R_SQUARED 0.972, PBLUC_HILL_SLOPE 3.75, PBLUC_R_SQUARED 0.69, read-out: LUCIFERASE INFECTION ASSAY - IC50): 2 µM
Cc1cc(SCCN)c2cc(F)ccc2n1	> 14 µM	IC50 (HEPG2TOX_HILL_SLOPE 2.08, HEPG2TOX_R_SQUARED 0.947, PBLUC_HILL_SLOPE 2.61, PBLUC_R_SQUARED 0.644, read-out: LUCIFERASE INFECTION ASSAY - IC50): 6.26 µM

SMILES	IC90	further results
CCOC(=O)c1sc(N)c(C#N)c1CSc1nnc(-c2ccc(OC)c(OC)c2)o1	9.92 µM	IC50 (HEPG2TOX_HILL_SLOPE 2.07, 4.99, HEPG2TOX_R_SQUARED 0.833, 0.121, PBLUC_HILL_SLOPE 3.67, 1.56, PBLUC_R_SQUARED 0.0908, 0.540, read-out: LUCIFERASE INFECTION ASSAY - IC50): 4.06 µM
O=C(NC1CC1)c1ccc(-c2cnc3cnc(-c4ccccc4Cl)cn23)cc1	> 8.49 µM	IC50 (HEPG2TOX_HILL_SLOPE 2.06, HEPG2TOX_R_SQUARED 0.921, PBLUC_HILL_SLOPE 2.15, PBLUC_R_SQUARED 0.563, read-out: LUCIFERASE INFECTION ASSAY - IC50): 4.01 µM
c1ccc(-c2csc3ncnc(Sc4ccc5nnnn5n4)c23)cc1	> 10 µM	IC50 (HEPG2TOX_HILL_SLOPE 2.04, HEPG2TOX_R_SQUARED 0.855, PBLUC_HILL_SLOPE 0.945, PBLUC_R_SQUARED 0.512, read-out: LUCIFERASE INFECTION ASSAY - IC50): 7.55 µM
N#C/C(=N\Nc1cc(C(F)(F)F)ccc1OCC(F)(F)F)S(=O)(=O)c1ccccc1	0.397 µM	IC50 (HEPG2TOX_HILL_SLOPE 2.04, HEPG2TOX_R_SQUARED 0.948, PBLUC_HILL_SLOPE 1.99, PBLUC_R_SQUARED 0.732, read-out: LUCIFERASE INFECTION ASSAY - IC50): 0.131 µM
CC1=NC(C)=C(C#N)C(c2cc(Br)ccc2OC(F)F)C1C#N (configuration not stated)	4.24 µM	IC50 (HEPG2TOX_HILL_SLOPE 2.06, HEPG2TOX_R_SQUARED 0.906, PBLUC_HILL_SLOPE 11.5, PBLUC_R_SQUARED 0.189, read-out: LUCIFERASE INFECTION ASSAY - IC50): 3.51 µM
CCCCn1nc(C)c(/C=C/C(=O)N(CC)CC(=O)NCc2ccc(F)cc2)c1Cl	> 10 µM	IC50 (HEPG2TOX_HILL_SLOPE 2.05, HEPG2TOX_R_SQUARED 0.946, PBLUC_HILL_SLOPE 2.58, PBLUC_R_SQUARED 0.346, read-out: LUCIFERASE INFECTION ASSAY - IC50): 6.71 µM
CCCn1c(NC(=O)c2ccc(CS(=O)(=O)c3ccccc3)o2)nc2ccccc21	4.08 µM	IC50 (HEPG2TOX_HILL_SLOPE 2.08, HEPG2TOX_R_SQUARED 0.973, PBLUC_HILL_SLOPE 1.97, PBLUC_R_SQUARED 0.429, read-out: LUCIFERASE INFECTION ASSAY - IC50): 1.34 µM
COc1ccc(-c2ccc3ncc(-c4ccc5c(c4)OCO5)n3n2)cc1OC	1.1 µM	IC50 (HEPG2TOX_HILL_SLOPE 2.06, HEPG2TOX_R_SQUARED 0.96, PBLUC_HILL_SLOPE 2.96, PBLUC_R_SQUARED 0.768, read-out: LUCIFERASE INFECTION ASSAY - IC50): 0.524 µM
O=C(Nc1ccc(Oc2ccccc2)cc1)c1csc(C(O)c2cccc(Cl)c2)n1 (configuration not stated)	5.62 µM	IC50 (HEPG2TOX_HILL_SLOPE 2.05, HEPG2TOX_R_SQUARED 0.879, PBLUC_HILL_SLOPE 3.47, PBLUC_R_SQUARED 0.401, read-out: LUCIFERASE INFECTION ASSAY - IC50): 2.99 µM
O=C(Nc1ccc2nc(Cc3ccccc3)nn2c1)c1cccc(Cl)c1	1.48 µM	IC50 (HEPG2TOX_HILL_SLOPE 2.06, HEPG2TOX_R_SQUARED 0.967, PBLUC_HILL_SLOPE 11.3, PBLUC_R_SQUARED 0.609, read-out: LUCIFERASE INFECTION ASSAY - IC50): 1.22 µM
Fc1cccc(-c2nc3ccnc(NCCc4ccccn4)c3[nH]2)c1	4.02 µM	IC50 (HEPG2TOX_HILL_SLOPE 2.04, HEPG2TOX_R_SQUARED 0.803, PBLUC_HILL_SLOPE 12.8, PBLUC_R_SQUARED 0.152, read-out: LUCIFERASE INFECTION ASSAY - IC50): 3.38 µM
CCOC(=O)c1ccc(N2CCN(C(C)c3nc(C(C)C)no3)CC2)nc1 (configuration not stated)	> 10 µM	IC50 (HEPG2TOX_HILL_SLOPE 2.09, HEPG2TOX_R_SQUARED 0.987, PBLUC_HILL_SLOPE 1.97, PBLUC_R_SQUARED 0.365, read-out: LUCIFERASE INFECTION ASSAY - IC50): 4.25 µM
N#C/C(=N\Nc1ccccc1Cl)S(=O)(=O)c1ccc(Cl)cc1	4.8 µM	IC50 (HEPG2TOX_HILL_SLOPE 2.02, HEPG2TOX_R_SQUARED 0.971, PBLUC_HILL_SLOPE 7.31, PBLUC_R_SQUARED 0.396, read-out: LUCIFERASE INFECTION ASSAY - IC50): 3.55 µM
CNc1nc2cnc(Nc3cccc(NC(C)=O)c3)cc2n1-c1cccc(F)c1	> 10 µM	IC50 (HEPG2TOX_HILL_SLOPE 2.07, HEPG2TOX_R_SQUARED 0.855, PBLUC_HILL_SLOPE 1.72, PBLUC_R_SQUARED 0.4, read-out: LUCIFERASE INFECTION ASSAY - IC50): 3.92 µM
c1ccc(-c2ccnc3c2ccc2c(-c4ccccc4)ccnc23)cc1	1.74 µM	IC50 (HEPG2TOX_HILL_SLOPE 2.07, HEPG2TOX_R_SQUARED 0.947, PBLUC_HILL_SLOPE 9.72, PBLUC_R_SQUARED 0.861, read-out: LUCIFERASE INFECTION ASSAY - IC50): 1.39 µM

From ChEMBL document CHEMBL4483862, “Open-source discovery of chemical leads for next-generation chemoprotective antimalarials” (2018)
